This note sets out measurements from ChEMBL document CHEMBL4619828, “Discovery of Potent and Orally Bioavailable Small Molecule Antagonists of Toll-like Receptors 7/8/9 (TLR7/8/9)” (ACS Med Chem Lett, 2020).

Assay [1] concerns the target T1, Toll-like receptor 9 (Homo sapiens, UniProt Q9NR96).
T1 sequence (Q9NR96 whole entry): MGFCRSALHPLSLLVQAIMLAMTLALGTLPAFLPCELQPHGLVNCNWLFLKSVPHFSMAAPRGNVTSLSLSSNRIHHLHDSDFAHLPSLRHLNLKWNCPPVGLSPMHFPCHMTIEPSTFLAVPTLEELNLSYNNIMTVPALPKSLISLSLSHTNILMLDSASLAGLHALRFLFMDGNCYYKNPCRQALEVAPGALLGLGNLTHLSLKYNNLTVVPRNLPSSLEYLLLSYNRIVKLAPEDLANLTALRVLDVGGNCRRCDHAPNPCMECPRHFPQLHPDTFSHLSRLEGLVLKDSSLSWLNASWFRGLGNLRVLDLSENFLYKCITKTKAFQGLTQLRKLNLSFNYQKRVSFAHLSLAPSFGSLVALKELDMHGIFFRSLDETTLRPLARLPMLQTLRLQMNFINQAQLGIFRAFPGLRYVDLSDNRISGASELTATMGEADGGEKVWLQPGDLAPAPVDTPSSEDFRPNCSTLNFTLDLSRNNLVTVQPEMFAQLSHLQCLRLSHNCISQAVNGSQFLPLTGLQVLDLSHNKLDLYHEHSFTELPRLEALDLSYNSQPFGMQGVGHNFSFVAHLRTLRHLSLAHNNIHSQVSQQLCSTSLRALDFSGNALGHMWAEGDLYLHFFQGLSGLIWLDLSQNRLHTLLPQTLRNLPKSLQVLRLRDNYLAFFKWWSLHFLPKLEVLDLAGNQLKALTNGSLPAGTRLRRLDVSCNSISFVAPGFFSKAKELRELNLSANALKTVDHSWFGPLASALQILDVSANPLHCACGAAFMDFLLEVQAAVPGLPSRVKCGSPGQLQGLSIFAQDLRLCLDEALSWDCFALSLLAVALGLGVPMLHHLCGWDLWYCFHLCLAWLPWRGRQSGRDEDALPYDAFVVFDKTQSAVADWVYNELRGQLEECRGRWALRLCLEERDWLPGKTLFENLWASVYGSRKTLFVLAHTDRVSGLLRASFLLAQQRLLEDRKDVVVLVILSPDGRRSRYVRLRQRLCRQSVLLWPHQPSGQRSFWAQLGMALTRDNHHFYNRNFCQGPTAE
In words: Antagonist activity at TLR9 in human pDC assessed as inhibition of ODN2216-induced IFN-alpha production incubated for 24 hrs measured by ELISA. (In general: In an ELISA, binding on a coated surface is turned into a signal by an enzyme label.)

Assay [2] has as its target T2, Toll-like receptor 9 (Mus musculus, UniProt Q9EQU3).
T2 sequence (Q9EQU3 whole entry): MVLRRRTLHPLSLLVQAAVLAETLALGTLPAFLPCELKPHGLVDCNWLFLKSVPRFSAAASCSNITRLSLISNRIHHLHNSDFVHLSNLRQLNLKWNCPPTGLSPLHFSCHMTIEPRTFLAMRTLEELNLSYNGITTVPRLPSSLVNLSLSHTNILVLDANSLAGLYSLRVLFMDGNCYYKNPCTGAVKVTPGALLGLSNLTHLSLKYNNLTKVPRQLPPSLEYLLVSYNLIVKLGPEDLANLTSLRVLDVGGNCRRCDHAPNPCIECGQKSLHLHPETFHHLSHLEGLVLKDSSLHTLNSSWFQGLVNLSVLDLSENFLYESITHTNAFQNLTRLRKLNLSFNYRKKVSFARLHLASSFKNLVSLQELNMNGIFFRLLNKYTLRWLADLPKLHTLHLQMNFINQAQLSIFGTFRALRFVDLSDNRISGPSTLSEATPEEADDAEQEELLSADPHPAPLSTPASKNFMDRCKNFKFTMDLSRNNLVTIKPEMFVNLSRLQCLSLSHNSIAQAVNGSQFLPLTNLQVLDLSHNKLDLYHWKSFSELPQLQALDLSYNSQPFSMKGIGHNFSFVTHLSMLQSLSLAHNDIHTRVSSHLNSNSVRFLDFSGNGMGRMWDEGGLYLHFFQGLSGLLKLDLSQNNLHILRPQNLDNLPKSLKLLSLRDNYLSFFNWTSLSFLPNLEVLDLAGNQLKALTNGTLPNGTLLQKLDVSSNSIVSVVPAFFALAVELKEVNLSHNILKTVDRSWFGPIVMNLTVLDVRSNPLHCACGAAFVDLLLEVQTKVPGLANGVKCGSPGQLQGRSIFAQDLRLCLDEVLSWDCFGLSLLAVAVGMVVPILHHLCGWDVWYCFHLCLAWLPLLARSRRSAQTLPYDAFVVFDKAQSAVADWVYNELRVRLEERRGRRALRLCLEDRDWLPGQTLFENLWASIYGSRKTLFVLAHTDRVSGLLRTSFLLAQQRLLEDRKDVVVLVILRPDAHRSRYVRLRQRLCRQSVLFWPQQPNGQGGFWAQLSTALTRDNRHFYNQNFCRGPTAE
Put plainly: Antagonist activity at TLR9 in mouse whole blood cells assessed as inhibition of ODN-2216 induced IL-6 production by ELISA. The class given is cell-based.

Turning to `CNCCN1CCC(c2ccc3[nH]c(-c4ccc(OC)c(OC)c4)c(C(C)C)c3c2)CC1`, the IC50 on Toll-like receptor 9 [1] worked out at 210 nM; on Toll-like receptor 9 [2], 510 nM.

By IC50 is commonly meant the concentration that inhibits the measured activity by half.
